Where “and” joins values, the source holds several entries; their conditions need not be identical. Identical values can stand only once.

The test system of one experiment is MUC5AC. Also on record: method as in PMID 23187130. The following applies: airway epithelial cells; BIRB796 at high concentration; cited from earlier work.
The next experiment deals with T1, GST-p38αT106M (Homo sapiens, UniProt Q16539, T106M).
T1 construct: made in house
As to the kind of experiment: In vitro kinase assay, GST-ATF2 substrate, [γ-32P]ATP. The class given is biochemical. As to the method: (§1) Bacterially produced GST-p38α and GST-p38αT106M were used for the kinase assay. GST-ATF2 (1–109)[34] was used as a substrate. The assay conditions used have been previously described. […] DMSO (1 μL) was used instead of compound as a negative control. Then, the mixture was combined with the solution containing 1 μg substrate protein, 185 kBq [γ-^32P]ATP and 20 μΜ ATP to generate a 15 μL reaction mixture and incubated for 30 min at 30 °C. The reaction was terminated by adding 7.5 μL of 3 × SDS sample buffer and boiled for 5 min. Phosphorylated substrate protein was then separated by 12.5% SDS- polyacrylamide gel electrophoresis and visualized by autoradiography.

The target of the next experiment is T2, p38γ (Homo sapiens, UniProt P53778).
T2 sequence (P53778 1-367): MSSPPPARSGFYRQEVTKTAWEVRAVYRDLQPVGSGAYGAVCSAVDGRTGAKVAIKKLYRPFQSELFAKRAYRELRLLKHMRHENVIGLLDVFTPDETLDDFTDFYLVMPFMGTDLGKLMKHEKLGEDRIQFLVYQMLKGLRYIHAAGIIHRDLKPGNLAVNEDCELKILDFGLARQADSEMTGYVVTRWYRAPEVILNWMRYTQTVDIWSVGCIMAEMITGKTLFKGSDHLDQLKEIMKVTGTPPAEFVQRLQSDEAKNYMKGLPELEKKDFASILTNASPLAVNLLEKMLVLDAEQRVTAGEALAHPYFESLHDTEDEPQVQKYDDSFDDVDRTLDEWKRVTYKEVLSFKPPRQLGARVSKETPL
As to the kind of experiment: KinaseProfiler quantitative kinase assay (Eurofins), MBP substrate. Type of experiment: biochemical. The arrangement: purchased Eurofins Pharma Discovery Services UK Limited (KinaseProfiler service). The following applies: ATP at Km 15 µM, means of duplicate determinations. The protocol:
(§2) SU-002 derivatives (SU-001, 003, 004, 005, and 006, shown in Fig. 3A) were synthesized and the inhibitory activities of SU-002 and its derivatives against p38αT106M were tested. […] We then conducted quantitative kinase assay analyses including IC50 using the KinaseProfiler service of Eurofins Pharma Discovery Services. MBP was used as a substrate for all tested p38 isoforms: p38α, p38αT106M, p38γ, and p38δ. All p38 isoforms used were activated using a constitutively active mutant of MKK6. […] Next, we examined their effects in HeLa cells. […] To verify the specificity of SU-005 for p38δ, a FLAG-tagged p38δM107T was constructed and tested in a similar manner.
(§3) Quantitative kinase assay analyses including IC50 were conducted using the KinaseProfiler service of Eurofins Pharma Discovery Services UK Limited.

The target in another experiment is T3, p38α (Homo sapiens, UniProt Q16539).
T3 construct: purchased Eurofins Pharma Discovery Services UK Limited (KinaseProfiler service)
T3 sequence (Q16539 whole entry): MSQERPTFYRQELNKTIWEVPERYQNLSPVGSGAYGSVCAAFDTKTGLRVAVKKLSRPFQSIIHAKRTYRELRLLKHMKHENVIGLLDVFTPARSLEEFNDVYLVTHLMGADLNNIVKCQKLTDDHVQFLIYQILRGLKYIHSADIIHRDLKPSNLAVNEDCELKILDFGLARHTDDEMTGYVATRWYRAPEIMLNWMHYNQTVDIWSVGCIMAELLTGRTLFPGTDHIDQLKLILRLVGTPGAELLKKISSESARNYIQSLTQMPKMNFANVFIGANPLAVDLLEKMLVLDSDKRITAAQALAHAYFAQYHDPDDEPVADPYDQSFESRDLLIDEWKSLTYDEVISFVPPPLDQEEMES
The description is as above. The class given is biochemical. The following applies: ATP at Km 90 µM, means of duplicate determinations. As to the method:
as §2, §3

Another experiment deals with T4, p38δ (Homo sapiens, UniProt O15264).
T4 construct: purchased Eurofins Pharma Discovery Services UK Limited (KinaseProfiler service)
T4 sequence (O15264 1-365): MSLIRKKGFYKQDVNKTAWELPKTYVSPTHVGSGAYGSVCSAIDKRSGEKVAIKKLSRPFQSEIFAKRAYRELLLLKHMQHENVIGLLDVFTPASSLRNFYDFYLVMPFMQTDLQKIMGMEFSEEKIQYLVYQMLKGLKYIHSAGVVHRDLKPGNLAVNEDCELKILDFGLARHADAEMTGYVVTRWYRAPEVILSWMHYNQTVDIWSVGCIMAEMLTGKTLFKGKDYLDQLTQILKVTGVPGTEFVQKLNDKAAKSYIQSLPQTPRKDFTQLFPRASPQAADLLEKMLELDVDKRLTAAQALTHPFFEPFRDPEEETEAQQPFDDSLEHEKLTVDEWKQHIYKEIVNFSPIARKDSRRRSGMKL
The description is as above. Type of experiment: biochemical. The following applies: ATP at Km 15 µM, means of duplicate determinations. The protocol: as §2, §3

Another experiment deals with T5, p38αT106M (Homo sapiens, UniProt Q16539, T106M).
T5 construct: purchased Eurofins Pharma Discovery Services UK Limited (KinaseProfiler service)
T5 sequence (Q16539 whole entry T106M): as the sequence (Q16539 whole entry) above, with T106M counted along it
The experiment is described as above. The class given is biochemical. The following applies: ATP at Km 70 µM, means of duplicate determinations. The protocol: as §2, §3

A further experiment has as its target T6, GST-p38αT106M mutant (Homo sapiens, UniProt Q16539, T106M).
T6 construct: made in house; host or cells: bacteria (stated for the kinase assay)
As to the kind of experiment: Comparative chemical array screening, binding to GST-p38αT106M. The following applies: Table S2. The protocol: Photo-cross-linked chemical arrays were prepared by the previously described method[33] utilizing a photoaffinity proline linker that had both PEG and a polyproline helix as spacers.
The slides were then washed with TBS-T buffer (10 mM Tris/HCl, 150 mM NaCl, 0.05% Tween-20, pH 8.0) three times for 5 min each and centrifuged (480 × g, 1 min) to dry. […] After washing with TBS-T buffer, the slides were incubated with an anti-GST antibody (30 μg/mL) in binding buffer at 30 °C for 1 h. This incubation was followed by another wash step and incubation with a secondary antibody (goat anti-rabbit IgG, Cy5 conjugate, 50 μg/mL in binding buffer) at 30 °C for 1 h. After the final wash step and spin dry, the slides were scanned at 635 nm on a GenePix 4300A microarray scanner (Molecular Devices). The fluorescence intensity (I) of each compound spot was quantified with GenePix 5.0 software with local background correction. Then, the difference (ΔΙ) of the fluorescence intensities between the GST-p38αT106M and GST-p38α-treated arrays was calculated by subtracting Ip38α from IT106M (ΔI = IT106M - Ip38α) for each spot. The mean and standard deviation (SD) of ΔI for all spots on the array were also calculated. The ΔΙ score of each spot was calculated using the following formula; ΔΙ score = (ΔI - mean)/SD. The compounds with a ΔΙ score larger than 2 were determined to be hit compounds for GST-p38αT106M. […]

A further experiment deals with T7, endogenous p38γ (Homo sapiens, UniProt P53778).
T7 construct: endogenous in cells; host or cells: HEK293T
T7 sequence (P53778 1-367): T2 sequence (P53778 1-367)
As to the kind of experiment: Endogenous p38γ auto-phosphorylation in HEK293T cells, western blot. The class given is cell-based. The following applies: 10 μM, 0.2 M NaCl stimulation, Fig. 6. As to the method: For the analyses with HEK293T cells, 1 × 10^5 cells were seeded into each well of a 48-well plate. The next day, 10 μM SU derivative or SB202190 was added 1 h prior to stimulation of the cells with 0.2 M NaCl. The cells were further grown in DMEM supplemented with 10% FBS for 20 min. Then, the cells were rinsed once with PBS and harvested in 1 × SDS sample buffer.

The next experiment concerns the target T8, GST-p38α (Homo sapiens, UniProt Q16539).
T8 construct: made in house
As to the kind of experiment: In vitro kinase assay, GST-ATF2 substrate, [γ-32P]ATP. The class given is biochemical. The following applies: Fig. 2C, SU-002 0.06-7.6 μM. The protocol:
as §1

T1 sequence (Q16539 whole entry T106M): as the sequence (Q16539 whole entry) above, with T106M counted along it
T6 sequence (Q16539 whole entry T106M): as the sequence (Q16539 whole entry) above, with T106M counted along it
T8 sequence (Q16539 whole entry): as the sequence (Q16539 whole entry) above

In the case of `Cc1ccc(-n2nc(C(C)(C)C)cc2NC(=O)Nc2ccc(OCCN3CCOCC3)c3ccccc23)cc1` [BIRB796], the “inhibition of production of MUC5AC mRNA and protein” value in the experiment with MUC5AC is listed as “markedly inhibited”.

Consider `Nc1nnc(Sc2ccnc3cc(Cl)ccc23)s1` [SU-001], for which the “inhibition of p38αT106M kinase activity” value against GST-p38αT106M (1 μM, Fig. 3B,C) is on record as “did not inhibit”. Also, the “%kinase activity relative to control, p38γ” value on p38γ (1 µM) was 103 ± 8%; at p38γ (10 µM) it was 95 ± 2%. Further, the “%kinase activity relative to control, p38α” value on p38α (1 µM) was 91 ± 13%; on p38α (10 µM), 72 ± 2%. Besides, the “%kinase activity relative to control, p38δ” value on p38δ (1 µM) came to 94 ± 2%; on p38δ (10 µM), 92 ± 1%. For the same molecule, the “%kinase activity relative to control, p38αT106M” value is reported as 99 ± 0% on p38αT106M (1 µM) and 91 ± 6% on p38αT106M (10 µM).

For `CCCCCCCC(=O)Nc1nnc(Sc2ccnc3cc(Cl)ccc23)s1` [SU-002], the IT106M score at GST-p38αT106M mutant (I score = (I − Imean)/ISD, duplicate spots) is 4.80 and 3.66. For the same molecule, at GST-p38αT106M mutant (ΔI = IT106M – Ip38α, ΔI score = (ΔI − ΔImean)/ΔISD, hit if larger than 2), the ΔI score is 6.30 and 4.89. For the same molecule, at endogenous p38γ, the “inhibition of endogenous p38γ phosphorylation” value is listed as “similarly potent inhibitory activities”. Also, the “inhibition of p38α kinase activity” value against GST-p38α is recorded as “this inhibition was not seen”. The “inhibition of p38αT106M kinase activity” value against GST-p38αT106M (1 μM, Fig. 3B,C) is “clearly impaired”; against GST-p38αT106M (Fig. 2C,D, SU-002 0.012-7.6 μM), “inhibited the kinase activity of p38αT106M in a dose-dependent manner”. The “%kinase activity relative to control, p38γ” value at p38γ (1 µM) stood at 92 ± 5%; at p38γ (10 µM) it was 88 ± 2%. The “%kinase activity relative to control, p38α” value is 88 ± 6% at p38α (1 µM) and 94 ± 5% at p38α (10 µM). Further, the “%kinase activity relative to control, p38δ” value is 90 ± 0% on p38δ (1 µM) and 96 ± 0% at p38δ (10 µM). For the same molecule, the “%kinase activity relative to control, p38αT106M” value on p38αT106M (1 µM) was determined as 83 ± 7%; at p38αT106M (10 µM), 72 ± 2%.

Regarding `CC(=O)Nc1nnc(Sc2ccnc3cc(Cl)ccc23)s1` [SU-003], at endogenous p38γ, the “inhibition of endogenous p38γ phosphorylation” value was “no or weak inhibitory activity”. Besides, the “%kinase activity relative to control, p38γ” value at p38γ (1 µM) was found to be 112 ± 3%; on p38γ (10 µM), 104 ± 6%. Moreover, the “%kinase activity relative to control, p38α” value at p38α (1 µM) is on record as 92 ± 8%; at p38α (10 µM), 94 ± 6%. The “%kinase activity relative to control, p38δ” value stood at 99 ± 2% at p38δ (1 µM) and 81 ± 1% on p38δ (10 µM). Also, the “%kinase activity relative to control, p38αT106M” value at p38αT106M (1 µM) came to 96 ± 4%; on p38αT106M (10 µM) it was 94 ± 1%.

`CCCCCC(=O)Nc1nnc(Sc2ccnc3cc(Cl)ccc23)s1` [SU-004]: the “inhibition of endogenous p38γ phosphorylation” value against endogenous p38γ is reported as “no or weak inhibitory activity”. Moreover, the “%kinase activity relative to control, p38γ” value at p38γ (1 µM) is given as 111 ± 4%; on p38γ (10 µM), 104 ± 8%. Also, the “%kinase activity relative to control, p38α” value at p38α (1 µM) amounted to 91 ± 2%; on p38α (10 µM), 86 ± 3%. Besides, the entries for the “%kinase activity relative to control, p38δ” value at p38δ (1 µM) and at p38δ (10 µM) were 100 ± 4% and 97 ± 3%, respectively. The entries for the “%kinase activity relative to control, p38αT106M” value on p38αT106M (1 µM) and on p38αT106M (10 µM) were 99 ± 0% and 94 ± 3%, respectively.

These data come from article PMC4949465, “Comparative chemical array screening for p38γ/δ MAPK inhibitors using a single gatekeeper residue difference between p38α/β and p38γ/δ” (Scientific Reports, 2016).
